The results in this text go back to article PMC4538536, “In Silico-Based High-Throughput Screen for Discovery of Novel Combinations for Tuberculosis Treatment” (Antimicrobial Agents and Chemotherapy, 2015).

In brackets after ≈: the same amount, converted by molar mass. Where two headings read alike, the source gives them in different places.

Data set [1] concerns M. tuberculosis H37Rv. In words: MIC determination, resazurin-based microplate assay. The class given is cell-based, Mycobacterium tuberculosis. The conditions noted are these: Mycobacterium tuberculosis, single drug.
For data set [2], the system named is M. tuberculosis H37Rv. As to the kind of experiment: In vitro bactericidal-effect analysis (CFU enumeration of checkerboard wells). Particulars: single drug at its MIC (FIC of 1); positive = reduction in CFU. The data set is classed as cell-based, Mycobacterium tuberculosis. On the procedure:
For determining the extent of the bactericidal effect, sample wells which remained blue in the resazurin microtiter assay (REMA) and whose ΣFICs were within the synergistic-to-additive range (<0.7 for doublets and <1.5 for triplets) were plated on Middlebrook 7H10 agar medium and incubated at 37°C for 21 to 28 days, following which bacterial colonies were enumerated to obtain the net reduction in CFU in comparison to the counts for the untreated controls at the start of drug testing, as well as to that achieved when M. tuberculosis was exposed to each drug alone.

Data set [3] can be described thus: In vivo pharmacokinetics in infected mice (plasma, LC-MS/MS). More on the design: species or system BALB/c mice. Particulars: BALB/c, mouse, plasma, po, steady state, infected mice. Here is the method:
The drugs were formulated in 0.5% hydroxypropyl methyl cellulose (HPMC)–0.1% Tween 80 suspensions as 3- or 4-drug combinations. Formulations were prepared by weighing and adding each compound to the bottle, according to the design. Formulation vehicle was added, and the suspension was stirred overnight. Only uniform suspensions were used, while those that precipitated were abandoned. Formulations were prepared every week, and compound stability was estimated at the end of the week. Pharmacokinetics (PK) analysis was performed on infected mice on the 20th day of dosing. Blood samples were collected from each mouse at 0.5, 2, 4, 6, and 24 h after compound administration. Blood samples of about 30 μl were collected from mice in all groups by serial sampling via the saphenous vein into Microvette CB300 tubes (Starstedt, Germany) coated with EDTA, and plasma (10 μl) was separated following centrifugation. Plasma samples were stored at –20°C until analysis using liquid chromatography-tandem mass spectrometry (LC-MS/MS).
A 1-mg/ml stock solution of each compound was prepared in dimethyl sulfoxide (DMSO) for all of the analytes except PZA and LZD, for which the stock solution was 10 mg/ml in DMSO, and RIF, for which the stock solution was prepared in 50% acetonitrile in water. Three different sets of calibration standard (CS) combinations were prepared by 2-fold dilution of the stock solutions. CS set 1 contained analytes CLO, BDQ, PA824, PZA, and SQ109, CS set 2 contained analytes BTZ043, MXF, THI, EMB, and PZA, and CS set 3 contained LZD, INH, RIF, and PZA. A 16-point calibration curve was utilized for all analytes, and the standard curves ranged from 0.0005 to 20 μg/ml except for PZA and LZD, for which the standard curve range was 0.006 to 200 μg/ml. Plasma samples were precipitated by adding chilled acetonitrile (1:10, vol/vol) containing carbamazepine as an internal standard (10 ng/ml). Samples were vortexed and then centrifuged at 4,000 rpm for 30 min at 10°C. The resulting supernatant was mixed with the mobile phase (50% acetonitrile in water with 0.1% formic acid). Five microliters of the sample was injected on to a liquid chromatographic system (Acquity ultraperformance liquid chromatography [UPLC] system, Waters, Milford, MA) coupled to a triple-quadrupole mass spectrometer (Xevo TQ-S; Waters, Milford, MA). Samples were separated on an LC column (ACE 3 C18, 50 by 4.6 mm, 3 μm particle size; Advanced Chromatography Technologies, Aberdeen, Scotland) by isocratic elution with 40 parts of 20 mM ammonium formate containing 0.1% (vol/vol) formic acid and 60 parts of acetonitrile at a flow rate of 0.5 ml/min with a run time of 4 min. Samples were acquired in positive ion mode and detected by multiple reaction monitoring (MRM). The concentrations of the analyte were determined from a standard curve obtained by plotting known concentrations of the analyte against peak area ratios (analyte/internal standard peak response).
PK analyses of the plasma concentration-time relationships were performed with Phoenix software (version 6.2; Pharsight, USA). A noncompartmental analysis program, model 200, was used to calculate PK parameters. The maximum concentration of drug in plasma (Cmax), time to Cmax (Tmax), elimination half-life (t1/2), and area under the concentration-time curve (AUC) from time zero to infinity (AUC0–∞) were estimated. AUC was computed using the trapezoidal rule (linear up and log down), and the AUC0–∞ was considered only when the extrapolated AUC was not more than 20% of the original value. A minimum of three sample points in the terminal slope were used to calculate half-life.

The mark [4] stands for this setting: 150 mg/kg, Group 7 quartet PA824 50/BDQ 25/MXF 400/PZA 150 mg/kg oral, read-out: AUC0-24 in Quartet.
The mark [5] stands for this setting: 150 mg/kg, Group 7 quartet PA824 50/BDQ 25/MXF 400/PZA 150 mg/kg oral, read-out: Cmax in Quartet.
[6] abbreviates: 200 mg/kg, Group 3 triplet BTZ043 37.5/SQ109 25/MXF 200 mg/kg oral, read-out: AUC0-24 in Triplet.
[7] abbreviates: 200 mg/kg, Group 3 triplet BTZ043 37.5/SQ109 25/MXF 200 mg/kg oral, read-out: Cmax in Triplet.
Where [8] appears, read: 400 mg/kg, Group 7 triplet PA824 50/BDQ 25/MXF 400 mg/kg oral, read-out: AUC0-24 in Triplet.
Where [9] appears, read: 400 mg/kg, Group 7 triplet PA824 50/BDQ 25/MXF 400 mg/kg oral, read-out: Cmax in Triplet.
[10] abbreviates: 50 mg/kg, Group 1 triplet CFZ 20/BDQ 25/PA824 50 mg/kg oral, read-out: AUC0-24 in Triplet.
Setting [11] is: 50 mg/kg, Group 1 triplet CFZ 20/BDQ 25/PA824 50 mg/kg oral, read-out: Cmax in Triplet.
Where [12] appears, read: 150 mg/kg, Group 1 quartet CFZ 20/BDQ 25/PA824 50/PZA 150 mg/kg oral, read-out: AUC0-24 in Quartet.
The mark [13] stands for this setting: 150 mg/kg, Group 1 quartet CFZ 20/BDQ 25/PA824 50/PZA 150 mg/kg oral, read-out: Cmax in Quartet.

Usually MIC stands for the lowest concentration found to suppress growth. Usually Cmax stands for the peak of the concentration-time curve. As for `COc1c(N2C[C@@H]3CCCN[C@@H]3C2)c(F)cc2c(=O)c(C(=O)O)cn(C3CC3)c12` [Moxifloxacin], it took 0.02 µM (≈ 0.00803 µg/mL) to inhibit growth in the data set on M. tuberculosis H37Rv [1] (MIC). Further, in the data set with M. tuberculosis H37Rv [2], the “ΔLog10 CFU/ml at the MIC” value is reported as 1.40 Log10 CFU/ml. Moreover, the AUC(0-t) in data set [3] (150 mg/kg, Group 3 quartet BTZ043 37.5/SQ109 25/MXF 200/PZA 150 mg/kg oral, read-out: AUC0-24 in Quartet) turned out to be 13300 ± 3100 ng·h/mL; in data set [3] (setting [4]) it was 76300 ± 13900 ng·h/mL; in data set [3] (setting [6]), 12100 ± 3500 ng·h/mL; in data set [3] (setting [8]), 29800 ± 6600 ng·h/mL. The Cmax came out at 3900 ± 600 ng/mL in data set [3] (150 mg/kg, Group 3 quartet BTZ043 37.5/SQ109 25/MXF 200/PZA 150 mg/kg oral, read-out: Cmax in Quartet); 5100 ± 700 ng/mL in data set [3] (setting [5]); 2200 ± 900 ng/mL in data set [3] (setting [7]); 4600 ± 800 ng/mL in data set [3] (setting [9]).
For the molecule `O=[N+]([O-])c1cn2c(n1)OC[C@@H](OCc1ccc(OC(F)(F)F)cc1)C2` [PA824], 1.09 µM (≈ 0.392 µg/mL) was the least that counted as inhibitory against M. tuberculosis H37Rv [1] (MIC). Moreover, the “ΔLog10 CFU/ml at the MIC” value with M. tuberculosis H37Rv [2] is given as 1.07 Log10 CFU/ml. Also, the AUC(0-t) was 76700 ± 18500 ng·h/mL in data set [3] (setting [10]); 86200 ± 8600 ng·h/mL in data set [3] (50 mg/kg, Group 2 triplet SQ109 25/BDQ 25/PA824 50 mg/kg oral, read-out: AUC0-24 in Triplet); 119000 ± 13800 ng·h/mL in data set [3] (100 mg/kg, Group 8 triplet PA824 50/BDQ 25/EMB 100 mg/kg oral, read-out: AUC0-24 in Triplet); 60900 ± 8000 ng·h/mL in data set [3] (setting [12]); 60700 ± 10000 ng·h/mL in data set [3] (150 mg/kg, Group 2 quartet SQ109 25/BDQ 25/PA824 50/PZA 150 mg/kg oral, read-out: AUC0-24 in Quartet); 92100 ± 12700 ng·h/mL in data set [3] (setting [4]). The AUC(0-t) was 66400 ± 19000 ng·h/mL in data set [3] (150 mg/kg, Group 8 quartet PA824 50/BDQ 25/EMB 100/PZA 150 mg/kg oral, read-out: AUC0-24 in Quartet) and 134000 ± 41700 ng·h/mL in data set [3] (setting [8]). The Cmax worked out at 11200 ± 2400 ng/mL in data set [3] (setting [11]); 9300 ± 2300 ng/mL in data set [3] (50 mg/kg, Group 2 triplet SQ109 25/BDQ 25/PA824 50 mg/kg oral, read-out: Cmax in Triplet); 13300 ± 500 ng/mL in data set [3] (100 mg/kg, Group 8 triplet PA824 50/BDQ 25/EMB 100 mg/kg oral, read-out: Cmax in Triplet); 7800 ± 1100 ng/mL in data set [3] (setting [13]); 7300 ± 1100 ng/mL in data set [3] (150 mg/kg, Group 2 quartet SQ109 25/BDQ 25/PA824 50/PZA 150 mg/kg oral, read-out: Cmax in Quartet); 6000 ± 800 ng/mL in data set [3] (setting [5]). Moreover, the Cmax in data set [3] (150 mg/kg, Group 8 quartet PA824 50/BDQ 25/EMB 100/PZA 150 mg/kg oral, read-out: Cmax in Quartet) was 9800 ± 3600 ng/mL; in data set [3] (setting [9]) it was 8400 ± 1000 ng/mL.
`CC(=O)NC[C@H]1CN(c2ccc(N3CCOCC3)c(F)c2)C(=O)O1` [Linezolid] came in with a minimum inhibitory concentration (MIC) against M. tuberculosis H37Rv [1] of 2.31 µM (≈ 0.779 µg/mL). In addition, the “ΔLog10 CFU/ml at the MIC” value in the data set with M. tuberculosis H37Rv [2] is listed as 0.25 Log10 CFU/ml. Besides, the AUC(0-t) is 154000 ± 8800 ng·h/mL in data set [3] (130 mg/kg, Group 9 triplet EMB 100/SQ109 25/LZD 130 mg/kg oral, read-out: AUC0-24 in Triplet) and 178000 ± 12200 ng·h/mL in data set [3] (150 mg/kg, Group 9 quartet EMB 100/SQ109 25/LZD 130/PZA 150 mg/kg oral, read-out: AUC0-24 in Quartet). Moreover, the Cmax turned out to be 14100 ± 100 ng/mL in data set [3] (130 mg/kg, Group 9 triplet EMB 100/SQ109 25/LZD 130 mg/kg oral, read-out: Cmax in Triplet) and 14900 ± 1200 ng/mL in data set [3] (150 mg/kg, Group 9 quartet EMB 100/SQ109 25/LZD 130/PZA 150 mg/kg oral, read-out: Cmax in Quartet).
With `CO[C@H]1/C=C/O[C@@]2(C)Oc3c(C)c(O)c4c(O)c(c(/C=N/N5CCN(C)CC5)c(O)c4c3C2=O)NC(=O)/C(C)=C\C=C\[C@H](C)[C@H](O)[C@@H](C)[C@@H](O)[C@@H](C)[C@H](OC(C)=O)[C@@H]1C` [Rifampin], the MIC against M. tuberculosis H37Rv [1] stood at 0.009 µM (≈ 0.00741 µg/mL). Further, the “ΔLog10 CFU/ml at the MIC” value with M. tuberculosis H37Rv [2] is reported as 1.24 Log10 CFU/ml. For the same molecule, the AUC(0-t) in data set [3] (100 mg/kg, Ref. regimen triplet INH 30/RIF 10/EMB 100 mg/kg oral, read-out: AUC0-24 in Triplet) is 25400 ± 7300 ng·h/mL; in data set [3] (150 mg/kg, Ref. regimen quartet INH 30/RIF 10/EMB 100/PZA 150 mg/kg oral, read-out: AUC0-24 in Quartet) it was 22200 ± 8600 ng·h/mL. Further, the Cmax in data set [3] (100 mg/kg, Ref. regimen triplet INH 30/RIF 10/EMB 100 mg/kg oral, read-out: Cmax in Triplet) was 4900 ± 1300 ng/mL; in data set [3] (150 mg/kg, Ref. regimen quartet INH 30/RIF 10/EMB 100/PZA 150 mg/kg oral, read-out: Cmax in Quartet), 5500 ± 3000 ng/mL.
In turn, `CC(C)/N=c1\cc2n(-c3ccc(Cl)cc3)c3ccccc3nc-2cc1Nc1ccc(Cl)cc1` [Clofazimine] had an MIC in the data set with M. tuberculosis H37Rv [1] of 0.26 µM (≈ 0.123 µg/mL). In addition, the “ΔLog10 CFU/ml at the MIC” value in the data set with M. tuberculosis H37Rv [2] worked out at 0.72 Log10 CFU/ml. Further, the AUC(0-t) worked out at 42800 ± 5400 ng·h/mL in data set [3] (setting [10]) and 48000 ± 5200 ng·h/mL in data set [3] (setting [12]). Further, the highest concentration (Cmax) in data set [3] (setting [11]) worked out at 2300 ± 200 ng/mL; in data set [3] (setting [13]) it was 2400 ± 200 ng/mL.
In the data set with M. tuberculosis H37Rv [1], `C[C@H]1COC2(CCN(c3nc(=O)c4cc(C(F)(F)F)cc([N+](=O)[O-])c4s3)CC2)O1` [BTZ043] yielded an MIC of 0.0009 µM (≈ 0.000388 µg/mL). The “ΔLog10 CFU/ml at the MIC” value in the data set with M. tuberculosis H37Rv [2] worked out at 1.40 Log10 CFU/ml. In addition, the AUC(0-t) amounted to 15000 ± 6200 ng·h/mL in data set [3] (25 mg/kg, Group 6 triplet BTZ043 37.5/THI 800/SQ109 25 mg/kg oral, read-out: AUC0-24 in Triplet) and 11100 ± 5000 ng·h/mL in data set [3] (setting [6]). Moreover, the Cmax in data set [3] (25 mg/kg, Group 6 triplet BTZ043 37.5/THI 800/SQ109 25 mg/kg oral, read-out: Cmax in Triplet) stood at 2100 ± 400 ng/mL; in data set [3] (setting [7]), 2300 ± 900 ng/mL.
